Measurements taken from patent US4479962A, “Indazoloxypropanolamine derivatives and use in combating, and for the prophylaxis of, cardiac and circulatory diseases” (Boehringer Mannheim GmbH, priority 1981, dated 1984).

Test system: left ventricle
Assay: Cardiotonic effect in wake dogs, left ventricular dp/dt, in relation to isoprenalin
Type: in vivo
Conditions: intravenous, wake mongrel dogs, average of two to four individual tests; for ED50: Canis lupus familiaris, increasing dosage in intervals of ten minutes, read-out: ED50 (dosage which achieves one-half of the maximum effect), dp/dt; for dp/dt (%) of 0.3/μg/kg Isoprenalin i.v. (maximum achievable effect in comparison to isoprenalin): relative to 0.3 μg/kg isoprenalin i.v.
Description: For the tests, mongrel dogs of both sexes were used. In a preparatory operation, catheters had been inserted under aseptic conditions into the Arteria and Vena femoralis and, through the myocardium, into the left ventricle. The tests were begun not less than ten days after this operation, when the animals were again in a clinically healthy state. Throughout the test, during which the animals were wake, the arterial blood pressure was determined by means of a catheter and an electromechanical transducer. In addition, the pressure in the left ventricle was continuously measured by means of a tip manometer which had been introduced into the ventrical catheter and advanced as far as the heart, and from that pressure the differentiation based on the time dp/dt max was determined. The heart rate (f cor) was computed by counting the heart beats at a fast chart speed at given times of measurement. At the beginning of the experiments the animals were injected intravenously with 0.3 μg/kg of isoprenalin and the effect on the rapidity of the pressure increase recorded. After dissipation of this injection the test compounds were injected intravenously in increasing dosage rates in intervals of ten minutes and again the effect of each dosage level determined. For the characterization of the effectiveness of the test compounds two criteria were calculated: 1. The termination of the achievable maximum effect in comparison to isoprenalin. The maximum achievable effect of the test compound was compared to that of isoprenalin. (The higher the value, the stronger the effect.) 2. From the logarithm of the injected dosages and the effect after injection, the dosage was determined which achieves one-half of the maximum effect (ED 50). […]

## Cc1cccc(C)c1NCCNCC(O)COc1cccc2c1CCN2C=O (centres unmarked) [1-(1-formylindolin-4-yloxy)-3-[2-(2,6-dimethylphenylamino)-ethylamino]-propan-2-ol]
  ED50: 4.2 µg/kg
  dp/dt (%) of 0.3/μg/kg Isoprenalin i.v. (maximum achievable effect in comparison to isoprenalin): 87%

## Cc1cccc(C)c1NCCNCC(O)COc1cccc2[nH]nnc12.Cl.Cl (centres unmarked) [1-(Benztriazol-4-yloxy)-3-[2-(2,6-dimethylphenylamino)-ethylamino]-propan-2-ol dihydrochloride]
  ED50: 3.5 µg/kg
  dp/dt (%) of 0.3/μg/kg Isoprenalin i.v. (maximum achievable effect in comparison to isoprenalin): 100%

## Cc1cccc(C)c1NCCNCC(O)COc1cccc2[nH]ncc12 (centres unmarked) [1-(Indazol-4-yloxy)-3-[2-(2,6-dimethylphenylamino)ethylamino]-propan-2-ol]
  ED50: 2.2 µg/kg
  dp/dt (%) of 0.3/μg/kg Isoprenalin i.v. (maximum achievable effect in comparison to isoprenalin): 87%

## Cc1cccc(C)c1NCCNCC(O)COc1cccc2[nH]ccc12.O=C(O)O (centres unmarked) [1-(Indol-4-yloxy)-3-[2-(2,6-dimethylphenylamino)-ethylamino]-propan-2-ol dihydrogen carbonate]
  ED50: 3.2 µg/kg
  dp/dt (%) of 0.3/μg/kg Isoprenalin i.v. (maximum achievable effect in comparison to isoprenalin): 85%

## O=[N+]([O-])c1cccc(NCCNCC(O)COc2cccc3[nH]ncc23)c1 (centres unmarked) [1-(indazol-4-yloxy)-3-[2-(3-nitrophenylamino)-ethylamino]-propan-2-ol]
  ED50: 2 µg/kg
  dp/dt (%) of 0.3/μg/kg Isoprenalin i.v. (maximum achievable effect in comparison to isoprenalin): 66%

## OC(CNCCNc1cccc2c1CCC2)COc1cccc2[nH]ncc12 (centres unmarked) [1-(indazol-4-yloxy)-3-[2-(indanyl-4-amino)-ethylamino]-propan-2-ol]
  ED50: 4.9 µg/kg
  dp/dt (%) of 0.3/μg/kg Isoprenalin i.v. (maximum achievable effect in comparison to isoprenalin): 83%

## Cc1cccc(C)c1NCCCNCC(O)COc1cccc2[nH]ncc12 (centres unmarked) [1-(indazol-4-yloxy)-3-[3-2,6-dimethylphenylamino)-propylamino]-propan-2-ol]
  ED50: 4.2 µg/kg
  dp/dt (%) of 0.3/μg/kg Isoprenalin i.v. (maximum achievable effect in comparison to isoprenalin): 110%
